Format in all cases: in vivo
Assay [1] has as its system fall armyworms (Spodoptera frugiperda). In words: Example 29: survival of fall armyworm larvae on treated grass clippings. To be noted: 5 larvae/container, 4 days at 25° C. The procedure:
The efficacy of an embodiment of the 2-pack formulation against different larval stages of fall armyworms (Spodoptera frugiperda) was determined under laboratory conditions. Embodiments of the invention were compared to a conventional pesticide Cyfluthrin.
• 1) Larvae were obtained from Benzon Research Inc. • 2) 5 larvae/container and 3 containers=1 replication • 3) Treatments=1) Control • 2) 2-pack formulation at 5% dilution • 3) Cyfluthrin (insecticide), Al=0.75%, 3 fl oz/gal H2O (22 mL/L) • 4) Container=760 ml plastic bowl with lid containing moist filter paper on bottom and grass clippings • 5) St. Augustinegrass clippings dipped into respective fungicide treatment, drained to dry and put into container • 6) Hold 4 days at 25° C. and measure survival • 7) 7 replications of small larvae (2-10 mm) tested • 8) 6 replications of medium larvae (11-20 mm) tested • 9) 6 replications of large larvae (21-30 mm) tested • 10) Statistical analysis=Least Significant Difference (LSD) test Results: […]

A further assay relates to tropical sod webworms. In words: Example 29: survival of tropical sod webworm larvae. The procedure:
• 1) Larvae were obtained from Benzon Research Inc. • 2) 5 larvae/container and 3 containers=1 replication • 3) Treatments=1) Control • 2) 2-pack formulation at 5% dilution • 3) Cyfluthrin (insecticide), Al=0.75%, 3 fl oz/gal H2O (22 mL/L) • 4) Container=760 ml plastic bowl with lid containing moist filter paper on bottom and grass clippings • 5) St. Augustinegrass clippings dipped into respective fungicide treatment, drained to dry and put into container • 6) Hold 4 days at 25° C. and measure survival • 7) 7 replications of small larvae (2-10 mm) tested • 8) 6 replications of medium larvae (11-20 mm) tested • 9) 6 replications of large larvae (21-30 mm) tested • 10) Statistical analysis=Least Significant Difference (LSD) test Results:
Similar testing was conducted to determine the efficacy of embodiments of the 2-pack formulation to kill all sizes larvae (small, medium and large) of tropical sod webworms.

Assay [2] can be described thus: Synergy of the formulations when mixed with conventional chemical fungicides. The note with it: contact fungicide.

This note sets out measurements from patent publication US9485988B2, “Turfgrass fungicide formulation with pigment” (Suncor Energy Inc., priority 2008, dated 2016).

Turning to `CC1(C)C(C=C(Cl)Cl)C1C(=O)OC(C#N)c1ccc(F)c(Oc2ccccc2)c1` (stereo not shown) [Cyfluthrin], the “Mean survival, Large larvae” value worked out at 0 B in assay [1] (large larvae (21-30 mm)) and 0.3 B in the assay on tropical sod webworms (Large sod webworm larvae). For the same molecule, the “Mean survival, Medium larvae” value (in assay [1] (medium larvae (11-20 mm)); in the assay with tropical sod webworms (Medium sod webworm larvae)) was 0 B each time. Also, the “Mean survival, Small larvae” value (in assay [1] (small larvae (2-10 mm)); in the assay on tropical sod webworms (Small sod webworm larvae)) was 0 B in each case.

Consider `N#Cc1c(Cl)c(Cl)c(Cl)c(C#N)c1Cl` [chlorothalonil], for which, in assay [2], the “synergistic effect when mixed with embodiments of the invention” value was “synergistic effect was not observed”.
